Columns and labels:
Assay type in all cases: functional
Details in all cases: read-out: GI
DU-145 = assay: Anticancer activity against human DU-145 cells assessed as cell growth inhibition at 10 uM incubated for 48 hrs by SRB assay relative to control
786-0 = assay: Anticancer activity against human 786-0 cells assessed as cell growth inhibition at 10 uM incubated for 48 hrs by SRB assay relative to control
SW-620 = assay: Anticancer activity against human SW-620 cells assessed as cell growth inhibition at 10 uM incubated for 48 hrs by SRB assay relative to control
HCT-15 = assay: Anticancer activity against human HCT-15 cells assessed as cell growth inhibition at 10 uM incubated for 48 hrs by SRB assay relative to control
PC-3 = assay: Anticancer activity against human PC-3 cells assessed as cell growth inhibition at 10 uM incubated for 48 hrs by SRB assay relative to control
NCI/ADR-RES = assay: Anticancer activity against human NCI/ADR-RES cells assessed as cell growth inhibition at 10 uM incubated for 48 hrs by SRB assay relative to control
CCRF-CEM = assay: Anticancer activity against human CCRF-CEM cells assessed as cell growth inhibition at 10 uM incubated for 48 hrs by SRB assay relative to control
NCI-H226 = assay: Anticancer activity against human NCI-H226 cells assessed as cell growth inhibition at 10 uM incubated for 48 hrs by SRB assay relative to control
UACC-62 = assay: Anticancer activity against human UACC-62 cells assessed as cell growth inhibition at 10 uM incubated for 48 hrs by SRB assay relative to control
EKVX = assay: Anticancer activity against human EKVX cells assessed as cell growth inhibition at 10 uM incubated for 48 hrs by SRB assay relative to control
NCI-H322M = assay: Anticancer activity against human NCI-H322M cells assessed as cell growth inhibition at 10 uM incubated for 48 hrs by SRB assay relative to control
LOX IMVI = assay: Anticancer activity against human LOX IMVI cells assessed as cell growth inhibition at 10 uM incubated for 48 hrs by SRB assay relative to control
OVCAR-8 = assay: Anticancer activity against human OVCAR-8 cells assessed as cell growth inhibition at 10 uM incubated for 48 hrs by SRB assay relative to control
COLO 205 = assay: Anticancer activity against human COLO 205 cells assessed as cell growth inhibition at 10 uM incubated for 48 hrs by SRB assay relative to control
MCF7 = assay: Anticancer activity against human MCF7 cells assessed as cell growth inhibition at 10 uM incubated for 48 hrs by SRB assay relative to control
A498 = assay: Anticancer activity against human A498 cells assessed as cell growth inhibition at 10 uM incubated for 48 hrs by SRB assay relative to control
RPMI-8226 = assay: Anticancer activity against human RPMI-8226 cells assessed as cell growth inhibition at 10 uM incubated for 48 hrs by SRB assay relative to control
SF-268 = assay: Anticancer activity against human SF-268 cells assessed as cell growth inhibition at 10 uM incubated for 48 hrs by SRB assay relative to control
UO-31 = assay: Anticancer activity against human UO-31 cells assessed as cell growth inhibition at 10 uM incubated for 48 hrs by SRB assay relative to control
U-251 = assay: Anticancer activity against human U-251 cells assessed as cell growth inhibition at 10 uM incubated for 48 hrs by SRB assay relative to control
A549 = assay: Anticancer activity against human A549 cells assessed as cell growth inhibition at 10 uM incubated for 48 hrs by SRB assay relative to control

Row | SMILES | inhibition of growth at 10 µM (DU-145) [%] | inhibition of growth at 10 µM (786-0) [%] | inhibition of growth at 10 µM (SW-620) [%] | inhibition of growth at 10 µM (HCT-15) [%] | inhibition of growth at 10 µM (PC-3) [%] | inhibition of growth at 10 µM (NCI/ADR-RES) [%] | inhibition of growth at 10 µM (CCRF-CEM) [%] | inhibition of growth at 10 µM (NCI-H226) [%] | inhibition of growth at 10 µM (UACC-62) [%] | inhibition of growth at 10 µM (EKVX) [%] | inhibition of growth at 10 µM (NCI-H322M) [%] | inhibition of growth at 10 µM (LOX IMVI) [%] | inhibition of growth at 10 µM (OVCAR-8) [%] | inhibition of growth at 10 µM (COLO 205) [%] | inhibition of growth at 10 µM (MCF7) [%] | inhibition of growth at 10 µM (A498) [%] | inhibition of growth at 10 µM (RPMI-8226) [%] | inhibition of growth at 10 µM (SF-268) [%] | inhibition of growth at 10 µM (UO-31) [%] | inhibition of growth at 10 µM (U-251) [%] | also measured
1 | Cc1ccc(/C=N/Nc2nc(Nc3ccccc3)nc(Nc3ccc(S(N)(=O)=O)cc3)n2)cc1 | 34 | 53 | < 10 | 46 | 33 | < 10 | 57 | 20 | < 10 | 21 | > 10 | 45 | 30 | 16 | 73 | 45 | 56 | 12 | 31 | 37 | inhibition of growth at 10 µM (A549): 16%
2 | NS(=O)(=O)c1ccc(Nc2nc(N/N=C/CCc3ccccc3)nc(Nc3ccccc3)n2)cc1 | < 10 | < 10 | < 10 | < 10 | < 10 | < 10 | < 10 | < 10 | < 10 | < 10 | < 10 | < 10 | < 10 | < 10 | < 10 | < 10 | < 10 | < 10 | < 10 | < 10 | inhibition of growth at 10 µM (A549): < 10%
3 | NS(=O)(=O)c1ccc(Nc2nc(N/N=C/C=C/c3ccccc3)nc(Nc3ccccc3)n2)cc1 | 57 | 62 | 48 | 55 | 52 | < 10 | 75 | 41 | 33 | 28 | 43 | 72 | 50 | 44 | 84 | 59 | 71 | 53 | 60 | 48 | inhibition of growth at 10 µM (A549): 30%

— ChEMBL document CHEMBL5154747, “Discovery of new carbonic anhydrase IX inhibitors as anticancer agents by toning the hydrophobic and hydrophilic rims of the active site to encounter the dual-tail approach” (Eur J Med Chem, 2022)
